According to the supplement of paper PMC11061612:

What was measured:
Assay in all cases: Bliss excess, mean over the matrix (fraction); higher = more synergy
[1] = system: NCI-H747 (Colorectal Carcinoma)
How it was run: (§1)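 Bliss excess equals the observed combination effect minus the expected value EA + EB − EA·EB, where EA and EB are the effects of each agent alone. Combination Emax is the second-highest inhibition within the matrix. Inhibition was scaled from CellTiter-Glo 2.0 luminescence, with 0 set by vehicle wells and 1 by blank wells, after 72 hours of two-drug dosing of cells plated in 1536-well plates.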

[2] = system: PCI-30 (Head and Neck Carcinoma)
How it was run: as §1

[3] = system: LoVo (Colorectal Carcinoma)
How it was run: as §1

[4] = system: 8305C (Thyroid Gland Carcinoma)
How it was run: as §1

[5] = system: HDLM-2 (Hodgkin's Lymphoma)
How it was run: as §1

[6] = system: CAL-51 (Breast Carcinoma)
How it was run: as §1

[7] = system: MHH-PREB-1 (B-Cell Non-Hodgkin's Lymphoma)
How it was run: as §1

[8] = system: LU-139 (Small Cell Lung Carcinoma)
How it was run: as §1

Mewo (Melanoma) = system: Mewo (Melanoma)
How it was run: as §1

[9] = system: 639-V (Bladder Carcinoma)
How it was run: as §1

NCI-H28 (Mesothelioma) = system: NCI-H28 (Mesothelioma)
How it was run: as §1

[10] = system: CTB-1 (B-Cell Non-Hodgkin's Lymphoma)
How it was run: as §1

[11] = system: MDA-MB-468 (Breast Carcinoma)
How it was run: as §1

[12] = system: UMC-11 (Other Solid Carcinomas)
How it was run: as §1

[13] = system: EN (Endometrial Carcinoma)
How it was run: as §1

NCI-H2461 (Mesothelioma) = system: NCI-H2461 (Mesothelioma)
How it was run: as §1

[14] = system: OVCAR-8 (Ovarian Carcinoma)
How it was run: as §1

[15] = system: RPMI-6666 (Non-Cancerous)
How it was run: as §1

[16] = system: SU-DHL-6 (B-Cell Non-Hodgkin's Lymphoma)
How it was run: as §1

[17] = system: SUP-T1 (T-Lymphoblastic Leukemia)
How it was run: as §1

Compound	Bliss excess [1]	Bliss excess [2]	Bliss excess [3]	Bliss excess [4]	Bliss excess [5]	Bliss excess [6]	Bliss excess [7]	Bliss excess [8]	Bliss excess (Mewo (Melanoma))	Bliss excess [9]	Bliss excess (NCI-H28 (Mesothelioma))	Bliss excess [10]	Bliss excess [11]	Bliss excess [12]	Bliss excess [13]	Bliss excess (NCI-H2461 (Mesothelioma))	Bliss excess [14]	Bliss excess [15]	Bliss excess [16]	Bliss excess [17]
Cc1c2c(nn1C)CSCc1cc(n(C)n1)CSc1cc(c3ccccc3c1)OCCCc1c(C(=O)O)n(C)c3c-2c(Cl)ccc13 [AZD5991] + CC1(C)CCC(CN2CCN(c3ccc(C(=O)NS(=O)(=O)c4ccc(NCC5CCOCC5)c([N+](=O)[O-])c4)c(Oc4cnc5[nH]ccc5c4)c3)CC2)=C(c2ccc(Cl)cc2)C1 [Venetoclax] (first compound max 1 µM, 7x7, partner max 1 µM)	-0.0438	-0.0376	-0.0217	-0.0189	0.162	0.0481	-0.0301	0.0307	0.0377	0.0009	-0.0812	-0.0491	0.0812	0.0749	-0.0236	-0.0237	-0.0157	0.233	0.0744	-0.0207
Cc1c2c(nn1C)CSCc1cc(n(C)n1)CSc1cc(c3ccccc3c1)OCCCc1c(C(=O)O)n(C)c3c-2c(Cl)ccc13 [AZD5991] + CN(C)CCCOc1ccc(-c2ccc3ncc4c(c3c2)n(C2CCOCC2)c(=O)n4C)cn1 [AZD0156] (first compound max 1 µM, 7x7, partner max 1 µM)	-0.0289	0.0079	-0.0005	-0.0178	0.0332	0.0198	0.0081	-0.0236	-0.019	-0.0065	-0.0024	-0.0457	-0.0544	0.0551	-0.024	0.0373	0.0408	-0.0605	-0.0154	-0.0007
Cc1c2c(nn1C)CSCc1cc(n(C)n1)CSc1cc(c3ccccc3c1)OCCCc1c(C(=O)O)n(C)c3c-2c(Cl)ccc13 [AZD5991] + C[C@@H]1COCCN1C2=NC(=NC(=C2)C3(CC3)[S@](=N)(=O)C)C4=C5C=CNC5=NC=C4 [AZD6738] (first compound max 1 µM, 7x7, partner max 10 µM)	-0.018	0.0378	-0.033	-0.0605	-0.0291	0.0585	-0.0095	0.0214	-0.0329	0.0431	0.0026	-0.0314	0.0455	-0.0265	-0.0039	0.0016	0.001	0.0272	-0.0137	-0.024
Cc1c2c(nn1C)CSCc1cc(n(C)n1)CSc1cc(c3ccccc3c1)OCCCc1c(C(=O)O)n(C)c3c-2c(Cl)ccc13 [AZD5991] + C[C@@H](Nc1cc(F)cc(F)c1)c1cc(C(=O)N(C)C)cc2c(=O)cc(N3CCOCC3)oc12 [AZD8186] (first compound max 1 µM, 7x7, partner max 3 µM)	-0.0421	-0.0209	0.0005	-0.0844	-0.0351	0.0173	-0.0069	-0.0439	-0.0411	0.0519	-0.0245	-0.0135	0.0092	-0.039	-0.109	-0.0062	0.0164	-0.0005	-0.002	-0.0003
Cc1c2c(nn1C)CSCc1cc(n(C)n1)CSc1cc(c3ccccc3c1)OCCCc1c(C(=O)O)n(C)c3c-2c(Cl)ccc13 [AZD5991] + Cc1cc2ncnn2cc1Nc1ncc2c(n1)n(C1CCOCC1)c(=O)n2C [AZD7648] (first compound max 1 µM, 7x7, partner max 10 µM)	-0.0703	-0.0572	-0.0356	-0.0739	0.0007	-0.0529	-0.0029	-0.013	-0.0211	-0.005	-0.0051	-0.0345	0.008	-0.0716	-0.056	-0.0516	-0.0129	-0.0204	0.0224	0.0115
Cc1c2c(nn1C)CSCc1cc(n(C)n1)CSc1cc(c3ccccc3c1)OCCCc1c(C(=O)O)n(C)c3c-2c(Cl)ccc13 [AZD5991] + Cn1cnc2c(F)c(Nc3ccc(Br)cc3Cl)c(C(=O)NOCCO)cc21 [Selumetinib] (first compound max 1 µM, 7x7, partner max 3 µM)	0.0032	-0.0352	0.0074	-0.0511	-0.0477	0.0634	0.0113	-0.0283	-0.0417	0.0247	-0.026	-0.02	-0.0389	0.0198	-0.0494	-0.0131	0.0416	0.0387	0.0071	-0.0246
C[C@@H]1COCCN1c1cc(C2([S@](C)(=N)=O)CC2)nc(-c2ccnc3[nH]ccc23)n1 [AZD6738] + O=C(c1cc(Cc2n[nH]c(=O)c3ccccc23)ccc1F)N1CCN(C(=O)C2CC2)CC1 [Olaparib] (first compound max 10 µM, 7x7, partner max 10 µM)	0.0096	-0.052	-0.0084	-0.0594	-0.0437	0.0407	-0.0405	0.0115	-0.0368	0.0684	0.011	-0.0454	-0.0227	0.0266	-0.0479	-0.0214	0.0495	-0.0839	-0.0124	-0.0289
Cc1cc2ncnn2cc1Nc1ncc2c(n1)n(C1CCOCC1)c(=O)n2C [AZD7648] + C=CCn1c(=O)c2cnc(Nc3ccc(N4CCN(C)CC4)cc3)nc2n1-c1cccc(C(C)(C)O)n1 [AZD1775] (first compound max 10 µM, partner max 1 µM)	-0.0108	0.0419	-0.0658	-0.0825	-0.0387	-0.05	0.028	-0.0642	0.0455	0.049	0.0291	-0.0542	-0.0044	-0.0202	-0.0608	-0.0524	0.0102	-0.0687	-0.0816	0.0169
Cc1cc2ncnn2cc1Nc1ncc2c(n1)n(C1CCOCC1)c(=O)n2C [AZD7648] + CCN(CCO)CCCOc1ccc2c(Nc3cc(CC(=O)Nc4cccc(F)c4)[nH]n3)ncnc2c1 [AZD2811] (first compound max 10 µM, 7x7, partner max 1 µM)	-0.0205	-0.0267	-0.0126	-0.0159	-0.0457	0.076	0.0617	0.0273	0.0082	0.0219	0.0016	-0.0578	-0.0442	-0.0884	-0.0671	-0.0105	0.0473	0.036	0.0052	0.11
Cc1cc2ncnn2cc1Nc1ncc2c(n1)n(C1CCOCC1)c(=O)n2C [AZD7648] + CN(C)CCCOc1ccc(-c2ccc3ncc4c(c3c2)n(C2CCOCC2)c(=O)n4C)cn1 [AZD0156] (first compound max 10 µM, 7x7, partner max 1 µM)	0.0253	-0.0411	-0.0469	-0.061	-0.0381	-0.0198	0.118	-0.0306	0.0033	0.0192	-0.0195	-0.0485	0.0032	0.0196	-0.0396	-0.0442	0.0245	-0.101	-0.0502	-0.0241
Cc1cc2ncnn2cc1Nc1ncc2c(n1)n(C1CCOCC1)c(=O)n2C [AZD7648] + C[C@@H]1COCCN1C2=NC(=NC(=C2)C3(CC3)[S@](=N)(=O)C)C4=C5C=CNC5=NC=C4 [AZD6738] (first compound max 10 µM, 7x7, partner max 10 µM)	0.0005	-0.0101	-0.0058	0.02	-0.0357	0.0017	0.0336	0.0121	-0.0217	0.0317	0.081	0.0098	-0.0063	0.0002	-0.0485	-0.0188	0.0012	-0.0048	-0.0598	0.0052
Cc1cc2ncnn2cc1Nc1ncc2c(n1)n(C1CCOCC1)c(=O)n2C [AZD7648] + O=C(c1cc(Cc2n[nH]c(=O)c3ccccc23)ccc1F)N1CCN(C(=O)C2CC2)CC1 [Olaparib] (first compound max 10 µM, 7x7, partner max 10 µM)	-0.0465	-0.0695	-0.0382	-0.0478	-0.0558	-0.0214	-0.026	-0.0492	-0.0885	-0.0184	-0.0378	-0.0489	-0.0504	0.0471	-0.0423	-0.0601	-0.0103	-0.0545	-0.0263	-0.0488
COc1cccc2c1C(=O)c1c(O)c3c(c(O)c1C2=O)C[C@@](O)(C(=O)CO)C[C@@H]3O[C@H]1C[C@H](N)[C@H](O)[C@H](C)O1 [Doxorubicin] + Cc1cc2ncnn2cc1Nc1ncc2c(n1)n(C1CCOCC1)c(=O)n2C [AZD7648] (first compound max 1 µM, 7x7, partner max 10 µM)	0.0388	0.006	0.0105	-0.0023	0.0106	0.121	0.0891	0.0476	0.0082	0.117	-0.0177	0.077	0.0309	0.07	0.0108	-0.0108	0.061	0.103	0.0697	0.0368
COc1cccc(OCCCN)c1-c1cc(Nc2cnc(C#N)cn2)n[nH]1 [Prexasertib] + C=CCn1c(=O)c2cnc(Nc3ccc(N4CCN(C)CC4)cc3)nc2n1-c1cccc(C(C)(C)O)n1 [AZD1775] (first compound max 1 µM, partner max 1 µM)	0.0623	0.0954	0.0269	0.0491	-0.0404	0.101	0.0729	0.0089	0.0641	0.178	-0.0145	0.0374	0.0399	0.0712	0.0115	-0.0573	0.0937	0.0119	0.25	-0.0504
COc1cccc(OCCCN)c1-c1cc(Nc2cnc(C#N)cn2)n[nH]1 [Prexasertib] + CCc1c2c(nc3ccc(O)cc13)-c1cc3c(c(=O)n1C2)COC(=O)[C@]3(O)CC [SN-38] (first compound max 1 µM, 7x7, partner max 0.3 µM)	0.0283	0.0215	-0.0727	-0.014	-0.0701	-0.0495	0.0153	-0.0118	0.0881	-0.0477	-0.074	-0.0622	-0.0015	0.0774	0.0282	-0.114	0.0373	-0.0554	0.157	-0.152
